Results on two compounds are retold here after PMC10584170, “Machine learning-based phenotypic imaging to characterise the targetable biology of Plasmodium falciparum male gametocytes for the development of transmission-blocking antimalarials” (PLOS Pathogens, 2023).

Molecules are shown by their SMILES. Read-outs that look alike come from different tables or passages of the source.

For series [1], the system named is P. falciparum male gametocytes. The experiment in a line: P. falciparum Dual Gamete Formation Assay (PfDGFA), male readout (exflagellation). The class given is cell-based, Plasmodium falciparum NF54. Particulars: for inhibition at 2 µM: 24h preincubation with gametocytes. The essentials: (§1)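 Mature NF54 gametocytes (day 14) were incubated with compound for 24 h at 37°C under 1% O2/3% CO2, then triggered with xanthurenic acid ookinete medium plus Cy3-anti-Pfs25. Exflagellation was imaged by brightfield; after a further 24 h at 28°C, Pfs25-positive female gametes were imaged by fluorescence and counted by automated image analysis.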

Series [2] relates to calcium-dependent protein kinase 1 (PfCDPK1). To be noted: cited from earlier work.
Series [3] relates to cyclin-dependent protein kinase 6 (PfPK6). Set-up: method as in PMID 26934697. Particulars: cited from earlier work.
Series [4] has as its system P. falciparum male gametocytes. As to the kind of experiment: PhIDDLI timecourse assay, compound added at timepoints after triggering male gametogenesis. The class given is cell-based, Plasmodium falciparum NF54. The procedure: To gain greater understanding of their activity, selected molecules displaying different inhibition phenotypes in the initial screen were re-tested. Rather than subjecting gametocytes to a 24h preincubation prior to inducing gametogenesis, compounds were added at varying timepoints after triggering male gametogenesis. Samples were then fixed 20 min post-induction, imaged and analysed similarly using the PhIDDLI pipeline.
Alternatively, if compound action over time was to be assessed, 1.5ml tubes with appropriate dilutions of test compounds were prepared for each timepoint. Gametogenesis was then triggered in the mature gametocyte culture with ookinete medium and temperature decrease from 37°C. At appropriate times, 200 μl of triggered culture was sampled and mixed with test compound. All samples were then allowed to continue gametogenesis and fixed as described previously with paraformaldehyde after 20 min (when a DMSO-treated sample could be expected to be exflagellating).
100 μl of the fixed cell suspensions were added to wells of a 24 well plate containing 1ml PBS and a poly-l-lysine-coated glass coverslip. Cells were allowed to settle and adhere to the coverslip overnight at 4°C before coverslips were transferred to a hydrophobic membrane (Parafilm) for immunofluorescence staining in a humidified, dark box. Cells were permeabilised with 0.1% Triton-X100 in PBS for 10 min before washing in PBS three times. Non-specific binding was blocked by incubating coverslips with PBS + 10% fetal bovine serum (FBS) (blocking buffer) for 1 h. Gametocytes and microgametes were visualised by labelling with an anti-alpha tubulin antibody (raised from chicken embryo brain tubulin but cross-reacts with many other species) (clone DM1A (Sigma)) 1:500 dilution in blocking buffer for 1 h, washed as before, and then stained with an anti-mouse Alexa488 secondary antibody (Thermo-Fisher) 1:1,000 dilution in blocking buffer for a further 1 h. After a final series of washes, the coverslips were mounted on glass slides with VectaShield mountant (Vector Laboratories) containing 4′,6-diamidino-2-phenylindole (DAPI) to visualise cellular DNA.
All slides were imaged using a Nikon Ti fluorescence microscope using an x100 oil objective and 1.5x zoom. For each sample, tubulin-postive, DAPI-positive stained gametocytes/gametes were imaged at random. Z-stack images with 0.3μm slices were captured for each field of view and images deconvolved and transformed by maximum intensity projection within the Nikon NIS Elements software. Within raw images, cells were initially identified by an automated analysis pipeline developed in ICY Bioimage Analysis based upon the intensity of the tubulin staining captured which assigns a region of interest (ROI) around each cell. All ROIs were reviewed by a trained operator and adjusted if necessary to reflect the true outline of the cell (for example if two cells touching had been allocated the same ROI). Raw images contained between 1 and 8 extractable cells.
Code for the PhIDDLI pipeline was written in Python 3.8 and executed by command line within a 64-bit Ubuntu virtual machine running within Oracle VM VirtualBox 6.1. […] Principle component analysis of compound phenotypes (Fig 5) was performed using ClustViz (https://biit.cs.ut.ee/clustvis/) using ln(x+1) transformation, and k-means clustering of the resultant PCA data was coded in R and executed in R Studio version 1.1.456 to identify optimum cluster using the elbow method.

Series [5] concerns P. falciparum female gametocytes. The experiment in a line: P. falciparum Dual Gamete Formation Assay (PfDGFA), female readout (Pfs25-positive female gametes). In kind it is cell-based, Plasmodium falciparum NF54. To be noted: for inhibition at 2 µM: 24h preincubation with gametocytes. The method in brief:
as §1

In another series the test system is HepG2 cells. The experiment in a line: HepG2 cytotoxicity counter-screen. (In general: The purpose of a counterscreen is to sort out artefacts and off-target activity.)
Series [6] has as its system P. falciparum protein kinase G (PfPKG). Particulars: cited from earlier work.

In general, IC50 refers to the concentration needed to halve the response being measured. Take `CNC(=O)c1ccccc1Nc1nc(Nc2ccc(N3CCN(C)CC3)nc2)ncc1C.Cl` [TC11]: the “Cytotox ratio Pf Male” value in series [1] came to 13.8. Besides, the IC50 in series [1] (this study, read-out: Pf DGFA IC50 MALE) was found to be 250 nM. The “activity against recombinant PfCDPK1” value in series [2] (enzymatic assay) is “active”. In addition, the “activity against recombinant PfPK6” value in series [3] is reported as “active”. Besides, in series [4] (compound added concurrent with induction, fixed 20 min post-induction, DMSO control 61.4%), the “cells showing apparent DNA replication” value is 18.6%. Further, the effect on exflagellation result in series [4] (compound added concurrent with triggering male gametogenesis or 2 min later) is given as “substantially reduced”; in series [4] (compound added later than 2 min post-induction (up to 10 min)), “inhibited exflagellation”. Also, the “amounts of cells showing evidence of DNA replication” value in series [4] (compound added during the first 2 min of male gametogenesis) is “markedly reduced”. Besides, the “Cytotox ratio Pf Female” value in series [5] is 0.344. Further, the “Mean TOX” value in the series on HepG2 cells (mean of the HepG2 TOX50 values) came out at 3.44 µM.
As usually defined, the inhibition is the share of the control response that was lost under treatment. For `CC(C)(CN)c1nc(-c2ccc(Cl)c(O)c2)c(-c2ccncc2)[nH]1.Cl` [TCMDC-140369], the inhibition at 2 µM came out at 95% in series [1] (Plasmodium falciparum, average of replicates, read-out: Average inhibition male (%)); 96% in series [1] (Plasmodium falciparum, replicate R1, read-out: % inhibition male (individual replicates) R1); 97.9% in series [1] (Plasmodium falciparum, replicate R2, read-out: % inhibition male (individual replicates) R2); 95.1% in series [1] (Plasmodium falciparum, replicate R3, read-out: % inhibition male (individual replicates) R3); 90.9% in series [1] (Plasmodium falciparum, replicate R4, read-out: % inhibition male (individual replicates) R4); 51.4% in series [5] (Plasmodium falciparum, average of replicates, read-out: Average inhibition female (%)). In addition, the inhibition at 2 µM in series [5] (Plasmodium falciparum, replicate R1, read-out: % inhibition female (individual replicates) R1) amounted to 22.1%; in series [5] (Plasmodium falciparum, replicate R2, read-out: % inhibition female (individual replicates) R2), 80%; in series [5] (Plasmodium falciparum, replicate R3, read-out: % inhibition female (individual replicates) R3), 27.7%; in series [5] (Plasmodium falciparum, replicate R4, read-out: % inhibition female (individual replicates) R4), 75.6%. In addition, the IC50 in series [1] (Plasmodium falciparum, PfDGFA, 24 h incubation with gametocytes before induction, exflagellation readout, read-out: Male IC50) is 910 nM; in series [5] (Plasmodium falciparum, PfDGFA, 24 h incubation with gametocytes before induction, female gamete readout, read-out: Female IC50), 270 nM. Moreover, the PfPKG inhibition entry in series [6] is reported as “PfPKG inhibitor”. Besides, the “activity against PfCDPK1” value in series [2] is on record as “additional activity”. For the same compound, in the series with HepG2 cells (cytotoxic activity against HepG2 cells), the Tox50 was found to be 17.63 µM.
